The source made the active and inactive calls. The rule behind the calls is not given here.
How the values were obtained:
[1] = Volume of distribution in Kunming mouse plasma at 10 mg/kg, iv administered as single dose measured after 5 to 360 mins by HPLC analysis; type: ADME, organism-based; conditions: time 5-360 min
A-375 [2] = experiment: Cytotoxicity against human A-375 cells expressing high level of topoisomerase I/II measured after 72 hrs by MTT assay; type: functional, cell-based; conditions: A-375, 72 h
[3] = biological target: DNA topoisomerase 2-alpha (Homo sapiens) (UniProt P11388); experiment: Poison activity at human topoisomerase II-alpha assessed as stabilization of enzyme-DNA cleavage complex by measuring nicked DNA formation at 100 uM after 60 mins by agarose gel electrophoresis method
A-375 [4] = experiment: Induction of apoptosis in human A-375 cells at 80 nM measured after 8 hrs by Annexin V-FITC and DAPI staining based flow cytometric analysis; type: functional

Chain of DNA topoisomerase 2-alpha (Homo sapiens) (P11388 whole entry): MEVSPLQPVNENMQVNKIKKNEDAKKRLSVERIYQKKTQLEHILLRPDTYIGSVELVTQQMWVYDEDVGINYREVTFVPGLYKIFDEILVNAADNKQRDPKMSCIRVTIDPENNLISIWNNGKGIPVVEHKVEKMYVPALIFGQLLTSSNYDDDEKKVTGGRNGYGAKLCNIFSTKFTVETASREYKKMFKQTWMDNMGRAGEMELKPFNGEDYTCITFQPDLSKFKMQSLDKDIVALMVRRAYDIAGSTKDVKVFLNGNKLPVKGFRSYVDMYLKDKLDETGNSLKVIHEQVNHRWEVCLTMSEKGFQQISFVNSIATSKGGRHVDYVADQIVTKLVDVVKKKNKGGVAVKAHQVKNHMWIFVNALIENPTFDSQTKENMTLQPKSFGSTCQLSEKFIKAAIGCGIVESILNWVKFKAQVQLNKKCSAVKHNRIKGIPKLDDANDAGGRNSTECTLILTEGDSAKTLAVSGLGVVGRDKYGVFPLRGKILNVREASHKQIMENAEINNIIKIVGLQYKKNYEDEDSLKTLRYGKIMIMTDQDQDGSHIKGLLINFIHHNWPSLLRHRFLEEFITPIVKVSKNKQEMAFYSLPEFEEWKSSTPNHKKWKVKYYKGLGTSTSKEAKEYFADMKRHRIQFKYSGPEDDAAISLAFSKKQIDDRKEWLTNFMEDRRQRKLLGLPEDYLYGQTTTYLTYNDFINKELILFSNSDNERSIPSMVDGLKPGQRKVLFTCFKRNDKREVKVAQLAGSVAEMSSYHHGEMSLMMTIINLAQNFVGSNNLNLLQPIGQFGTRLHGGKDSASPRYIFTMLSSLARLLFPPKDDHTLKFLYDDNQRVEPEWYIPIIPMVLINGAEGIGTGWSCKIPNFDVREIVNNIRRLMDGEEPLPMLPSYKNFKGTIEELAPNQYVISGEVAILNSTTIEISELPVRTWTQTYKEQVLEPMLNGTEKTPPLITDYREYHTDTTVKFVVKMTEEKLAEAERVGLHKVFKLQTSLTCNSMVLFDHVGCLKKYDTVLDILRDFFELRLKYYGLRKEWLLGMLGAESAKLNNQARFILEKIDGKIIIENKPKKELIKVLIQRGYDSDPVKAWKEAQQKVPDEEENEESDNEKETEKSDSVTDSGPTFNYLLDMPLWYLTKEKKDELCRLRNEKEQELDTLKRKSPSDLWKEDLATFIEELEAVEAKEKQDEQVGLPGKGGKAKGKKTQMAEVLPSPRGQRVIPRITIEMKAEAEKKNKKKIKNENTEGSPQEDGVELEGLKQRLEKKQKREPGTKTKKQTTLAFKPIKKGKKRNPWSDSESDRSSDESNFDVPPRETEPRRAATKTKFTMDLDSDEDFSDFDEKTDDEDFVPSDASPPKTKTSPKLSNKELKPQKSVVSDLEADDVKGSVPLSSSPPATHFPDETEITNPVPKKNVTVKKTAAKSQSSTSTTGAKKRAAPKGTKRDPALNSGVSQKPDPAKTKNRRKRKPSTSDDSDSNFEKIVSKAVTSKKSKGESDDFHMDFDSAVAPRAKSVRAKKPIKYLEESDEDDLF

Question: For `O=C1c2c[n+]([O-])c3ccccc3c2C(=O)c2c1c1ccccc1n2Cc1cn([C@@H]2C[C@H](O)[C@@H](CO)O2)nn1`, which Vd [1] is on record?
Answer: 0.234 L/kg

Question: What about the IC50 (A-375 [2]) of the same compound?
Answer: 20 nM

Question: And the Activity [3]?
Answer: Active

Question: And the Activity (A-375 [4])?
Answer: 7.14%

— ChEMBL document CHEMBL5154929, “Optimization of the Natural Product Calothrixin A to Discover Novel Dual Topoisomerase I and II Inhibitors with Improved Anticancer Activity” (J Med Chem, 2022)
